Experimental data: patent publication US9212180B2 (priority 2013, dated 2015)

How the values were obtained:
menin-MLL interaction = target: T1, menin-MLL interaction (Homo sapiens, UniProt O00255); test: biochemical;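 further: fluorescence polarization competition assay, inhibitors lower the fluorescence anisotropy signal, IC50 taken from this drop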
T1 sequence (O00255 1-610): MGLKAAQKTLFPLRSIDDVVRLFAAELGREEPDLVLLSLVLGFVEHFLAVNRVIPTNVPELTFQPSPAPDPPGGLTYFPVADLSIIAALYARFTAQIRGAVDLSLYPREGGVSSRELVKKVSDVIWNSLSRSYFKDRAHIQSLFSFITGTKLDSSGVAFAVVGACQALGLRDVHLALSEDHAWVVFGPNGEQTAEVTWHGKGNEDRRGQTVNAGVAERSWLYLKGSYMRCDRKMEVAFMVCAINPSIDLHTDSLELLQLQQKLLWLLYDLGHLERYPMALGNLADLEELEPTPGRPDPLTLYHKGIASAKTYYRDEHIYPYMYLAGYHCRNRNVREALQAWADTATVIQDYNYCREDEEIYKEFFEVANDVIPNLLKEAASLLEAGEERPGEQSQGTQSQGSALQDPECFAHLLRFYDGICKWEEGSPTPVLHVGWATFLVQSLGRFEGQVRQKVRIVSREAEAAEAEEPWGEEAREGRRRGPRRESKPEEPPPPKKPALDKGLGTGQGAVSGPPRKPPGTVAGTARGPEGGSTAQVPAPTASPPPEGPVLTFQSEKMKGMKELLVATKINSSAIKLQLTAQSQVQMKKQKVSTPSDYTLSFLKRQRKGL
Procedure: Fluorescence Polarization Assay.
Compounds that inhibit the interaction decrease the fluorescence anisotropy which is being used as a read-out for compound screening and for IC50 determination. For validation of the FP assay, a control competition experiment with unlabeled MLL peptide (no fluorescein attached) was performed.

MV4;11 [1] = test: Apoptosis in human MLL leukemia cell line MV4;11; type: cell-based; settings: FIG. 8A
Kasumi-1 = test: Apoptosis in control cell line Kasumi-1 without MLL translocation; type: cell-based; settings: Kasumi-1 control cell line without MLL translocation; FIG. 8B
KOPN8 = test: Differentiation of human MLL leukemia cell line KOPN8; type: cell-based; settings: FIG. 7
MonoMac-6 = test: Differentiation of human MLL leukemia cell line MonoMac-6; type: cell-based; settings: FIG. 7
MV4;11 [2] = test: Differentiation of human MLL leukemia cell line MV4;11; type: cell-based; settings: FIG. 6, FIG. 7
[3] = tested on: MLL-AF9 transformed murine bone marrow cells; test: Colony forming assay in MLL-AF9 transformed murine bone marrow cells; type: cell-based; settings: FIG. 10
MI-2 = test: Differentiation of human MLL leukemia cell line MI-2; type: cell-based; settings: FIG. 7
Hoxa9 and Meis1 = test: Expression level of Hoxa9 and Meis1 in MLL-AF9 transformed bone marrow cells; type: cell-based, murine; settings: FIG. 1B
MLL leukemia cells = test: Cell cycle arrest in MLL leukemia cells; type: cell-based; settings: different MLL leukemia cells; FIG. 9
ML-2 = test: Apoptosis in human MLL leukemia cell line ML-2; type: cell-based; settings: FIG. 8A
[4] = tested on: MLL-AF9 transformed murine bone marrow cells; test: Differentiation of MLL-AF9 transformed murine bone marrow cells; type: cell-based

Row | SMILES | IC50 (menin-MLL interaction) | further results
1 | OC(c1ccccc1)(c1ccccc1)C1CCN(CCCOc2ccc(-c3cccnc3)cc2)CC1 [Compound B36] | 22.6 µM | 
2 | OC(c1ccccc1)(c1ccccc1)C1CCN(CCCOc2ccc(OC(F)(F)F)cc2)CC1 [Compound B4] | 98 µM | 
3 | N#Cc1ccc(OCCCN2CCC([C@](O)(c3ccccc3)C3CCCC3)CC2)cc1 [Compound B19] |  | apoptosis (MV4;11 [1]): induce apoptosis; apoptosis (Kasumi-1): No effect on apoptosis; differentiation (change in the CD11b expression and change in morphology of cells) (KOPN8): induce differentiation; differentiation (change in the CD11b expression and change in morphology of cells) (MonoMac-6): induce differentiation; differentiation (CD11b expression and morphology change) (MV4;11 [2]): induce differentiation; transforming properties of MLL-AF9 fusion protein (colony number, morphology of colonies) [3]: reduce transforming properties; differentiation (change in the CD11b expression and change in morphology of cells) (MI-2): induce differentiation; expression level of Hoxa9 and Meis1 (Hoxa9 and Meis1): strongly downregulates; cell cycle arrest (MLL leukemia cells): induce cell cycle arrest; apoptosis (ML-2): induce apoptosis; differentiation as assessed by increased expression of the CD11b differentiation marker ([4]; FIG. 4): induces differentiation; differentiation as assessed by significant change in morphology ([4]; FIG. 5): induces differentiation
4 | N#CCc1ccc(OCCCN2CCC(C(O)(c3ccccc3)c3ccccc3)CC2)cc1 [Compound B40] | 17.4 µM | 
5 | N#Cc1ccc(OCCCN2CCC(C(O)(c3cc(F)cc(F)c3)c3ccccn3)CC2)cc1 (stereo not drawn) [Compound B81] | 0.9 µM | 
6 | COc1cccc(C(O)(C2CCCC2)C2CCN(CCCOc3ccc(C#N)cc3)CC2)c1 (stereo not drawn) [Compound B68] | 1.1 µM | 
7 | N#Cc1ccc(OCCCN2CCC(C(O)(C3CCCC3)C3CCCC3)CC2)cc1 [Compound B31] | 1.4 µM | 
8 | N#Cc1ccc(OCCCN2CCC(C(O)(c3ccccc3)c3ccccc3)CC2)cc1F [Compound B6] | 26.5 µM | 
9 | CCOC(c1ccccc1)(c1ccccc1)C1CCN(CCCOc2ccc(C#N)cc2)CC1 [Compound B54] | 5.3 µM | 
10 | CS(=O)(=O)NCc1ccc(OCCCN2CCC(C(O)(c3ccccc3)c3ccccc3)CC2)cc1 [Compound B25] | 40 µM | 
11 | NS(=O)(=O)c1ccc(OCCCN2CCC(C(O)(c3ccccc3)c3ccccc3)CC2)cc1 [Compound B24] | 14.3 µM | 
12 | N#Cc1ccc(OCCCN2CCC(C(O)(c3ccccc3)C3CCCC3)CC2)cn1 (stereo not drawn) [Compound B61] | 8.94 µM | 
13 | NCc1ccc(OCCCN2CCC([C@@](O)(c3ccccc3)C3CCCC3)CC2)cc1 [Compound B28] | 13.1 µM | 
14 | CC(=O)NCc1ccc(OCCCN2CCC(C(O)(c3ccccc3)c3ccccc3)CC2)cc1 [Compound B38] | 20.7 µM | 
15 | N#Cc1ccc(OCCCN2CCC(C(O)(Cc3ccccc3)C3=CCCC3)CC2)cc1 (stereo not drawn) [Compound B59] | 11.3 µM | 
16 | N#Cc1ccc(NCCCN2CCC(C(O)(c3ccccc3)c3ccccc3)CC2)cc1 [Compound B42] | 9.56 µM | 
17 | N#Cc1ccc(OCC(O)CN2CCC(C(O)(c3cccc(F)c3)c3ccccn3)CC2)cc1 (stereo not drawn) [Compound B86, 4-(3-(4-((3-Fluorophenyl)(hydroxy)(pyridin-2-yl)methyl)piperidin-1-yl)-2-hydroxypropoxy)benzonitrile] | 0.222 µM | 
18 | OC(c1ccccc1)(c1ccccc1)C1CCN(CCCOc2ccc(Cl)cc2)CC1 [Compound B5] | 96 µM | 
19 | COC(=O)c1ccc(OCCCN2CCC(C(O)(c3ccccc3)c3ccccc3)CC2)cc1 [Compound B16] | 86 µM | 
20 | CN(C)S(=O)(=O)c1ccc(OCCCN2CCC(C(O)(c3ccccc3)c3ccccc3)CC2)cc1 [Compound B30] | 40 µM | 
21 | CN(C)CCOC(c1ccccc1)(c1ccccc1)C1CCN(CCCOc2ccc(C#N)cc2)CC1 [Compound B56] | 4.2 µM | 
22 | O=C(c1ccc(OCCCN2CCC(C(O)(c3ccccc3)C3CCCC3)CC2)cc1)C1CCCC1 (stereo not drawn) [Compound B26] | 3.95 µM | 
23 | OC(c1ccccc1)(c1ccccc1)C1CCN(CCCOc2ccc(-n3ccnn3)cc2)CC1 [Compound B10, (1-(3-(4-(1H-1,2,3-triazol-1-yl)phenoxy)propyl)piperidin-4-yl)diphenylmethanol] | 29 µM | 
24 | CC(COc1ccc(C#N)c(F)c1)CN1CCC(C(O)(c2ccccc2)c2ccccc2)CC1 (stereo not drawn) [Compound B49] | 70.8 µM | 
25 | NCc1ccc(OCCCN2CCC([C@](O)(c3ccccc3)C3CCCC3)CC2)cc1 [Compound B27] | 13.9 µM | 
26 | CS(=O)(=O)c1ccc(OC[C@@H](O)CN2CCC(C(O)(c3ccccc3)c3ccccc3)CC2)cc1 [Compound B45] | 21 µM | 

Row | SMILES | IC50 (menin-MLL interaction) | further results
27 | Cc1ccc(OC[C@@H](O)CN2CCC(C(O)(c3ccccc3)c3ccccc3)CC2)cc1 [Compound B46] | 100 µM | 
28 | O[C@H](COc1ccc(Cl)cc1)CN1CCC(C(O)(c2ccccc2)c2ccccc2)CC1 [Compound B47] | 40 µM | 
29 | COC(c1ccccc1)(C1CCCC1)C1CCN(CCCOc2ccc(C#N)cc2)CC1 (stereo not drawn) [Compound B62] | 0.743 µM | 
30 | COC(c1ccccc1)(c1ccccc1)C1CCN(CCCOc2ccc(C#N)cc2)CC1 [Compound B55] | 5.3 µM | 
31 | N#Cc1ccc(OCCCN2CCC(C(O)(c3ccccc3)c3ccc(F)cc3)CC2)cc1 (stereo not drawn) [Compound B13] | 77.5 µM | 
32 | OC(c1ccccc1)(c1ccccc1)C1CCN(CCCOc2ccc(-c3ccncc3)cc2)CC1 [Compound B35, Diphenyl(1-(3-(4-(pyridin-4-yl)phenoxy)propyl)piperidin-4-yl)methanol] | 30.6 µM | 
33 | NCc1ccc(OCCCN2CCC(C(O)(C3=CCCC3)c3ccccc3)CC2)cc1 (stereo not drawn) [Compound B34] | 13.9 µM | 
34 | COc1ccc(C(O)(C2CCCC2)C2CCN(CCCOc3ccc(C#N)cc3)CC2)cn1 (stereo not drawn) [Compound B57] | 75 µM | 
35 | NS(=O)(=O)c1ccc(OCCCN2CCC(C(O)(c3cccc(F)c3)c3nccs3)CC2)cc1 (stereo not drawn) [Compound B82] | 0.354 µM | 
36 | N#Cc1ccc(OC[C@@H](O)CN2CCC(C(O)(c3ccccc3)c3ccccc3)CC2)c(F)c1 [Compound B50] | 40 µM | 
37 | [N-]=[N+]=Nc1ccc(OCCCN2CCC(C(O)(c3ccccc3)c3ccccc3)CC2)cc1 [Compound B14] | 58 µM | 
38 | Oc1ccccc1-c1ccc(OCCCN2CCC(C(O)(c3ccccc3)c3ccccc3)CC2)cc1 [Compound B29] | 8.3 µM | 
39 | N#Cc1ccc(OC[C@@H](O)CN2CCC(C(O)(c3ccccc3)c3ccccc3)CC2)cc1F [Compound B51] | 15 µM | 
40 | N#Cc1ccc(OCCCN2CCC(C(O)(c3ccccc3)C(F)(F)F)CC2)cc1 (stereo not drawn) [Compound B23] | 31 µM | 
41 | OC(c1ccccc1)(c1ccccc1)C1CCN(CCCOc2ccc(C(F)(F)F)cc2)CC1 [Compound B3] | 52 µM | 
42 | O[C@H](COc1ccc(OC(F)(F)F)cc1)CN1CCC(C(O)(c2ccccc2)c2ccccc2)CC1 [Compound B48] | 31 µM | 
43 | CS(=O)(=O)c1ccc(OCCCN2CCC(C(O)(c3ccccc3)c3ccccc3)CC2)cc1 [Compound B33] | 58.5 µM | 
44 | N#Cc1ccc(OCCCN2CCC(C(O)(c3ccccn3)C3CCCC3)CC2)cn1 (stereo not drawn) [Compound B64] | 4.05 µM | 
45 | N#Cc1ccc(OCCCN2CCC(C(O)(C3CCCC3)C3CCCCN3)CC2)cc1 (stereo not drawn) [Compound B63] | 28 µM | 
46 | OC(c1ccccc1)(c1ccccc1)C1CCN(CCCOc2ccc(-c3cncnc3)cc2)CC1 [Compound B39] | 83 µM | 
47 | CC(CCN1CCC(C(O)(c2ccccc2)c2ccccc2)CC1)Oc1ccc([N+](=O)[O-])cc1Cl (stereo not drawn) [Compound B52] | 55 µM | 
48 | N#Cc1ccc(OC[C@H](O)CN2CCC(C(O)(c3ccccc3)C3CCCC3)CC2)cc1 (stereo partly drawn) [Compound B41] | 1.15 µM | 
49 | N#Cc1ccc(OCCCN2CCC(C(O)(c3cccc(F)c3)c3nccs3)CC2)cc1 (stereo not drawn) [Compound B83] | 0.407 µM | 
50 | OC(c1ccccc1)(c1ccccc1)C1CCN(CCCOc2ccncc2)CC1 [Compound B37] | 25 µM | 
51 | N#Cc1ccc(OCCCN2CCC(C(O)(C3=CCCC3)c3ccccc3)CC2)cc1 (stereo not drawn) [Compound B32] | 2.08 µM | 
52 | N#Cc1ccc(OC[C@@H](O)CN2CCC(C(O)(c3ccccc3)C3CCCC3)CC2)cc1 (stereo partly drawn) [Compound B43] | 0.948 µM | 
